Data on 1 molecule can be found in US20220281930A1, “COMPOSITIONS AND METHODS FOR THE TREATMENT OF PATHOLOGICAL PAIN AND ITCH” (DUKE UNIVERSITY, priority 2019, published 2022).

One assay deals with KCC2 promoter. Put plainly: KCC2-LUC luciferase primary screen in primary cortical neurons. As to conditions: Natural Compounds; rank score; 100 nM, 48 h. It is filed as cell-based, mouse. As for the experimental part:
Cytosine arabinoside ([…]) was added to cultures on the second day after seeding [2 d in vitro (DIV)] to inhibit the proliferation of non-neuronal cells. Cell suspension was plated at a density of 1×10^6 cells/ml onto 24-well tissue-culture dishes coated with poly-d-lysine.
LUC activity was then determined for each compound. Culture supernatant was removed and cells were lysed with 150 μl lysis buffer (Targeting Systems CA, USA cat. CLR1). LUC activity was measured with a RedLuciferase Assay kit (Targeting Systems cat. FLAR) according to the manufacturer's instructions. A Veritas microplate luminometer was used to measure luminescence; for each treatment triplicates of 40 μl cell lysates (from each 24-well tissue-culture dish) were used and 25 μl substrate was injected per well. […] Relative Light units (RLU) for each treatment was derived from Light Units (compound treatment)/vehicle treatment (0.5% DMSO).
The primary screen encompassed three levels of LUC measurements. […] Each compound was ranked based on composite scores from primary and secondary screening.

For a further assay, the system named is KCC2. As to the kind of experiment: Composite score from primary and secondary screening. The format is cell-based, mouse. To be noted: Natural Compounds. As for the experimental part: The primary screen encompassed three levels of LUC measurements. The first level of screening yielded a total of 137 compounds with cut-off RLU>125% LUC activity. These 137 compounds were subject to second round of screening, which was carried out in duplicate independent assays to yield the top 103 compounds sorted for highest RLU. The 103 compounds were then subjected to a third round of screening carried out in duplicate independent assays to yield the top 40 compounds which were again ranked. The best 22 of these 40 compounds (ranked for highest RLU activity) were subjected to secondary screening: Cultured neurons were treated with the 22 compounds; RT-qPCR and Clomeleon imaging methodologies (Yeo et al., 2009, J Neurosci 29:14652-14662) were used to determine effects of compounds on KCC2 mRNA expression and [Cl—]i, respectively. Each compound was ranked based on composite scores from primary and secondary screening.
To identify KCC2 gene expression enhancing compounds, cultured primary cortical neurons were cultured from KCC2-luciferase(LUC)-knockin (KCC2-LUCki) mice (Liedtke et al., 2013, Small 9:1066-1075; Yeo et al., 2013, Proc Natl Acad Sci USA 110:4315-4320) and used LUC metrics as readout for activity of the proximal KCC2 promoter (2.5 kB (Yeo et al., 2009, J Neurosci 29:14652-14662)), which drives LUC in this mouse transgenic line. A Z′ factor of 0.94 was obtained. This strategy will not select for long-range enhancers of KCC2 gene expression that act outside the 2.5 kB core KCC2 promoter. 1057 compounds, contained in two NCI libraries (FIG. 1), related to inhibition of growth of malignantly transformed cells were screened. Iterative screening followed by measurements of KCC2 mRNA (RT-qPCR) and intracellular chloride ([Cl—]i), using clomeleon chloride indicator protein (Kuner and Augustine, 2000, Neuron 27:447-459; Yeo et al., 2009, J Neurosci 29:14652-14662), led to decreasing numbers of confirmed and re-confirmed hits, and 4 “winner” compounds were selected (FIG. 1 and Table 3).

The test system of another assay is CDKs. As to the kind of experiment: DARTS assay, CDKs. To be noted: 20 μM KP. It is filed as binding, rat. As for the experimental part:
Cultured primary rat cortical neurons were treated with either vehicle DMSO (0.1%) or 20 μM KP for 30 h. Cells were lysed in ice-cold lysis buffer (Tris.Cl pH8 50 mM, NaCl 150 mM, NP40 0.5%, N-dodecyl-b-D-maltoside 0.5%, Phosphatase Inhibitor (Pierce #88667) and Protease Inhibitor (Roche #11836153001)). Protein concentrations were determined by Bio-Rad DC Protein Assay kit using bovine albumin as standard. All steps were performed on ice. Samples were warmed to room temperature and digested with pronase (final concentration 1:500) for 30 min at 30° C. Digestion was halted using 0.5M EDTA. Only proteins not bound to KP were digested. The protein mixture was dialyzed using dialysis cassettes (Thermo Fisher 66203, 2K MWCO) and analyzed by LC-MS/MS method to identify proteins that are bound to KP, the latter step carried out in the Duke Proteomics Core Laboratory.
A drug affinity responsive target stability (DARTS) assay (Lomenick, et al., 2009, Proc Natl Acad Sci USA 106:21984-21989) was used to study direct binding of KP to GSK3ß (FIG. 8A) in primary cortical neurons. The findings were consistent with previous reports in cell lines (Knockaert, et al., 2002, The Journal of biological chemistry 277:25493-25501) yet novel in primary neurons. […]

Another assay addresses GSK3ß (Homo sapiens, UniProt P49841). As to conditions: literature; cited from earlier work.

Sequence of GSK3ß (P49841 whole entry): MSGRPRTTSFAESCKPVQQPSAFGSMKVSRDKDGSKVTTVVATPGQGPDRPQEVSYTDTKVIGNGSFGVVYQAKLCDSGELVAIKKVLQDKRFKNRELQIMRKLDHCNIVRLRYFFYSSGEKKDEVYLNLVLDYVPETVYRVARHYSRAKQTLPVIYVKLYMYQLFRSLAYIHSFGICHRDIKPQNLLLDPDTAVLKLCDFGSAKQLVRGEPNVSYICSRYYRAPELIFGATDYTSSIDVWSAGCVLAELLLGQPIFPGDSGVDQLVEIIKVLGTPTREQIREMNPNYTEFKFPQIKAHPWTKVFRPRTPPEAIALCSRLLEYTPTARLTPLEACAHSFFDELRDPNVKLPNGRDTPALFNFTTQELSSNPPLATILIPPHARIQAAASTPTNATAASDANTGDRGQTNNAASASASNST

In the case of `O=C1Cc2c([nH]c3ccc(Br)cc23)-c2ccccc2N1` [kenpaullone, 9-bromo-7,12-dihydro-indolo [3,2-d] [1]benzazepin-6(5H)-one], in the assay on KCC2 promoter, the “Luciferase Score (triplicates)” value turned out to be 2. For the same molecule, the “Top 2 hits” value in the assay on KCC2 was “winner”. For the same molecule, in the assay with KCC2 (sum of the three scores), the “Total Score” value worked out at 6. The “binding of KP to CDKs” value in the assay with CDKs is reported as “not identified”. Further, on GSK3ß, the “potency of GSK3ß inhibition among known targets” value is “highest potency”.
